Measurements from PubChem BioAssay (NCI).
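Assay format: 96-well plates, 48-hour exposure. GI50: concentration for 50% inhibition of growth. TGI is the concentration that stops growth completely.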

Experiments:
Assay in all cases: DTP human tumour cell line panel, 48 h
[1] = system: KM12 colon
[2] = system: SNB-75 CNS
[3] = system: SW-620 colon

COc1ccc(-c2ccc(-c3ccc(C(=N)N)nc3)s2)cc1Cl
GI50 [1]: 1.81 µM
TGI [1]: 3.32 µM
GI50 [2]: 1.43 µM
TGI [2]: 2.8 µM
GI50 [3]: 1.79 µM
TGI [3]: 3.37 µM
